Where two headings read alike, the source gives them in different places.
How the values were obtained:
E. coli CsgA = biological target: T1, E. coli CsgA (Escherichia coli, UniProt P28307); assay: In vitro ThioflavinT assay of CsgA aggregation (CsgA ThT Assay); format: biochemical
T1 construct: made in house; host or cells: E. coli NEB 3016 slyD::kan, pET11d
Method in brief: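 Purified C-terminal His-tagged CsgA, monomerised by desalting and 30-kDa filtration, at 2-20 μM with 20-40 μM ThT in 50 mM potassium phosphate pH 7.3, 1% DMSO, compounds 3.125-200 uM; room temperature, fluorescence (ex 438/em 495 nm) read every 15 min. Background-subtracted signal expressed as percent inhibition versus vehicle at 6-6.5 or 8-9 h, or as percent control AUC.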

[1] = test system: CsgA gene expression (csgBAC promoter-GFP reporter) in E. coli UTI89; assay: In vitro live cell fluorescent reporter assay of CsgA transcription (Reporter Assay); format: cell-based
Method in brief: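 Compounds at 0.14–100 μM (1% DMSO final) incubated 20 h at 27 °C in YESCA broth with UTI89 carrying a single-copy GFP reporter under the csgBAC intergenic promoter region, inoculum OD600 0.003. Fluorescence normalized to vehicle wells gave IC50 and 50%-of-vehicle concentration; OD600 reduction >10% flagged growth impact.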

[2] = read-out: CsgA ThT Assay (10 μM CsgA) % Control AUC at 1005 minutes, 25 μM (activity range), CsgA 10 μM, black plates, compound 25 μM, 1005 minutes, class symbol
[3] = read-out: CsgA ThT Assay (10 μM CsgA) % Control AUC at 1005 minutes, 25 μM, mean AUC as % of DMSO control, CsgA 10 μM, black plates, compound 25 μM, 1005 minutes
[4] = read-out: CsgA ThT Assay (10 μM CsgA) % Control AUC at 1005 minutes, 100 μM (activity range), CsgA 10 μM, black plates, compound 100 μM, 1005 minutes, class symbol
[5] = read-out: CsgA ThT Assay (10 μM CsgA) % Control AUC at 1005 minutes, 100 μM, mean AUC as % of DMSO control, CsgA 10 μM, black plates, compound 100 μM, 1005 minutes
[6] = Escherichia coli, read-out: Reporter Assay Abs IC50 (activity range), median Abs IC50 in the CsgA reporter assay, class symbol
[7] = Escherichia coli, read-out: Reporter Assay Abs IC50 (μM), median Abs IC50 in the CsgA reporter assay, N/A = maximum expression reduction is <50% of control
[8] = read-out: CsgA ThT Assay (2 μM CsgA) % Control Bmax 25 μM, activity range, class symbol, CsgA 2 μM, white plates, compound 25 μM
[9] = read-out: CsgA ThT Assay (2 μM CsgA) % Control Bmax 25 μM, mean Bmax as percentage of DMSO control, CsgA 2 μM, white plates, compound 25 μM
[10] = read-out: CsgA ThT Assay (2 μM CsgA) % Control Bmax 100 μM, activity range, class symbol, CsgA 2 μM, white plates, compound 100 μM
[11] = read-out: CsgA ThT Assay (2 μM CsgA) % Control Bmax 100 μM, mean Bmax as percentage of DMSO control, CsgA 2 μM, white plates, compound 100 μM
[12] = Escherichia coli, read-out: Reporter Assay Abs IC50, activity range, class symbol
[13] = CsgA 10 μM, black plates, compound 25 μM, 1005 minutes, class symbol

T1 sequence (P28307 23-151): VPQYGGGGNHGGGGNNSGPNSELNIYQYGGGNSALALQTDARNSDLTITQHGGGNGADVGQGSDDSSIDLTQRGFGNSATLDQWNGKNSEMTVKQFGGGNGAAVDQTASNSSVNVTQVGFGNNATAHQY

| SMILES | remaining activity at 25 µM (E. coli CsgA; [2]) [%] | remaining activity at 25 µM (E. coli CsgA; [3]) [%] | remaining activity at 100 µM (E. coli CsgA; [4]) [%] | remaining activity at 100 µM (E. coli CsgA; [5]) [%] | IC50 [1, 6] [µM] | IC50 [1, 7] [µM] | remaining activity at 100 µM (E. coli CsgA; [10]) [%] | remaining activity at 100 µM (E. coli CsgA; [11]) [%] | IC50 [1, 12] [µM] | further results |
| --- | --- | --- | --- | --- | --- | --- | --- | --- | --- | --- |
| CN1CC(C(=O)O)n2c(c(-c3cccc(C(F)(F)F)c3)c(Cc3cccc4ccccc34)c(C(O)CO)c2=O)S1(=O)=O (stereo not shown) [Compound 101, 7-(1,2-dihydroxyethyl)-2-methyl-8-(naphthalen-1-ylmethyl)-6-oxo-9-(3-(trifluoromethyl)phenyl)-3,4-dihydro-2H,6H-pyrido[1,2-e][1,2,5]thiadiazine-4-carboxylic acid 1,1-dioxide] | > 60 | 61 | 11 to 31 | 15 | > 10 | 29 |  |  |  |  |
| O=C(O)C1CN(C2CCCCC2)S(=O)(=O)c2c(-c3cccc(C(F)(F)F)c3)c(Cc3cccc4ccccc34)c(NC3CCCC3)c(=O)n21 (stereo not shown) [Compound 131, 2-cyclohexyl-7-(cyclopentylamino)-8-(naphthalen-1-ylmethyl)-6-oxo-9-(3-(trifluoromethyl)phenyl)-3,4-dihydro-2H,6H-pyrido[1,2-e][1,2,5]thiadiazine-4-carboxylic acid 1,1-dioxide] |  |  |  |  |  | 0.9 | > 60 | 94 | < 1.3 | remaining activity at 25 µM (E. coli CsgA; [8]): 31 to 60%; remaining activity at 25 µM (E. coli CsgA; [9]): 53% |
| Nc1c(Cc2cccc3ccccc23)c(-c2cccc(C(F)(F)F)c2)c2n(c1=O)C(C(=O)O)CNS2(=O)=O (stereo not shown) [Compound 082, 7-amino-8-(naphthalen-1-ylmethyl)-6-oxo-9-(3-(trifluoromethyl)phenyl)-3,4-dihydro-2H,6H-pyrido[1,2-e][1,2,5]thiadiazine-4-carboxylic acid 1,1-dioxide] | 31 to 60 | 51 | 11 to 31 | 12 | > 10 | 17.5 |  |  |  |  |
| CN(C)Cc1c(Cc2cccc3ccccc23)c(-c2cccc(C(F)(F)F)c2)c2n(c1=O)C(C(=O)O)CN2Cc1ccccc1 (stereo not shown) [Compound 204, 1-benzyl-6-((dimethylamino)methyl)-7-(naphthalen-1-ylmethyl)-5-oxo-8-(3-(trifluoromethyl)phenyl)-1,2,3,5-tetrahydroimidazo[1,2-a]pyridine-3-carboxylic acid] |  |  |  |  |  | 1.9 | > 60 | 71 | 1.3 to 4.5 |  |
| O=C(O)C1CNc2c(-c3cccc(C(F)(F)F)c3)c(C(F)(F)c3cccc4ccccc34)cc(=O)n21 (stereo not shown) [Compound 134, 7-(difluoro(naphthalen-1-yl)methyl)-5-oxo-8-(3-(trifluoromethyl)phenyl)-1,2,3,5-tetrahydroimidazo[1,2-a]pyridine-3-carboxylic acid] |  |  |  |  |  | 15.6 | > 60 | 66 | > 10 | remaining activity at 25 µM (E. coli CsgA; [8]): > 60%; remaining activity at 25 µM (E. coli CsgA; [9]): 92% |
| CCc1c(Cc2cccc3ccccc23)c(-c2cccc(C(F)(F)F)c2)c2n(c1=O)C(C(=O)O)CN(CCCO)S2(=O)=O (stereo not shown) [Compound 112, 7-ethyl-2-(3-hydroxypropyl)-8-(naphthalen-1-ylmethyl)-6-oxo-9-(3-(trifluoromethyl)phenyl)-3,4-dihydro-2H,6H-pyrido[1,2-e][1,2,5]thiadiazine-4-carboxylic acid 1,1-dioxide] | 31 to 60 | 35 | 11 to 31 | 20 | 4.6 to 10 | 9 |  |  |  |  |
| O=C(O)C1CNc2c(-c3cccc(C(F)(F)F)c3)c(Cc3cccc4ccccc34)c(Br)c(=O)n21 (stereo not shown) [Compound 133, 6-bromo-7-(naphthalen-1-ylmethyl)-5-oxo-8-(3-(trifluoromethyl)phenyl)-1,2,3,5-tetrahydroimidazo[1,2-a]pyridine-3-carboxylic acid] |  |  |  |  |  | 3.7 | 31 to 60 | 36 | 1.3 to 4.5 | remaining activity at 25 µM (E. coli CsgA; [8]): > 60%; remaining activity at 25 µM (E. coli CsgA; [9]): 71% |
| CCCCN1CC(C(=O)O)n2c(c(-c3cccc(C(F)(F)F)c3)c(Cc3cccc4ccccc34)cc2=O)S1(=O)=O (single isomer, unassigned) [Compound 021b, 2-butyl-8-(naphthalen-1-ylmethyl)-6-oxo-9-(3-(trifluoromethyl)phenyl)-3,4-dihydro-2H,6H-pyrido[1,2-e][1,2,5]thiadiazine-4-carboxylic acid 1,1-dioxide] |  |  |  |  |  |  |  |  |  | CsgA ThT Assay (10 μM CsgA) % Control AUC at 1005 minutes, 25 μM (activity range) (E. coli CsgA; [13]): (++) (% control AUC of 31 to 60%); CsgA ThT Assay (10 μM CsgA) % Control AUC at 1005 minutes, 100 μM (activity range) (E. coli CsgA; CsgA 10 μM, black plates, compound 100 μM, 1005 minutes, class symbol): (+) (% control AUC of greater than 60%); CsgA ThT Assay (10 μM CsgA) % Control AUC at 1005 minutes, 25 μM (E. coli CsgA; mean AUC as % of DMSO control, CsgA 10 μM, black plates, compound 25 μM, 1005 minutes): 36%; CsgA ThT Assay (10 μM CsgA) % Control AUC at 1005 minutes, 100 μM (E. coli CsgA; mean AUC as % of DMSO control, CsgA 10 μM, black plates, compound 100 μM, 1005 minutes): 99%; IC50 ([1]; read-out: Reporter Assay Abs IC50 (activity range), median Abs IC50 in the CsgA reporter assay, class symbol): 1.3 to 4.5 µM; IC50 ([1]; read-out: Reporter Assay Abs IC50, median Abs IC50 in the CsgA reporter assay, N/A = maximum expression reduction is <50% of control): 2.1 µM |
| CCCCCN1CC(C(=O)O)n2c(c(-c3cccc(C(F)(F)F)c3)c(Cc3ccc(N)c4ccccc34)cc2=O)S1(=O)=O (stereo not shown) [Compound 052] | 31 to 60 | 42 | 11 to 31 | 20 | < 1.3 | 1.1 |  |  |  |  |
| O=C(O)CC1CSc2c(-c3cccc(C(F)(F)F)c3)c(Cc3cccc4ccccc34)cc(=O)n21 (stereo not shown) [Compound 129, 2-(7-(naphthalen-1-ylmethyl)-5-oxo-8-(3-(trifluoromethyl)phenyl)-2,3-dihydro-5H-thiazolo[3,2-a]pyridin-3-yl)acetic acid] | 11 to 31 | 28 | > 60 | 61 | 1.3 to 4.5 | 3.4 |  |  |  |  |
| CCCN1CC(C(=O)O)n2c(c(-c3cccc(C(F)(F)F)c3)c(Cc3cccc4ccccc34)cc2=O)S1(=O)=O (single isomer, unassigned) [Compound 016a, 8-(naphthalen-1-ylmethyl)-6-oxo-2-propyl-9-(3-(trifluoromethyl)phenyl)-3,4-dihydro-2H,6H-pyrido[1,2-e][1,2,5]thiadiazine-4-carboxylic acid 1,1-dioxide] |  | 21 | 11 to 31 | 14 | 4.6 to 10 | 8.3 |  |  |  | CsgA ThT Assay (10 μM CsgA) % Control AUC at 1005 minutes, 25 μM (activity range) (E. coli CsgA; [13]): (+++) (% control AUC of 11 to 31%) |
| Nc1c(Cc2cccc3ccccc23)c(-c2cccc(C(F)(F)F)c2)c2n(c1=O)C(C(=O)O)CN(CCCO)S2(=O)=O (stereo not shown) [Compound 097, 7-amino-2-(3-hydroxypropyl)-8-(naphthalen-1-ylmethyl)-6-oxo-9-(3-(trifluoromethyl)phenyl)-3,4-dihydro-2H,6H-pyrido[1,2-e][1,2,5]thiadiazine-4-carboxylic acid 1,1-dioxide] | > 60 | 63 | 31 to 60 | 41 | > 10 | 18.4 |  |  |  |  |
| CN(C)Cc1c(Cc2cccc3ccccc23)c(-c2cccc(C(F)(F)F)c2)c2n(c1=O)C(C(=O)O)CN(C)S2(=O)=O (stereo not shown) [Compound 108, 7-((dimethylamino)methyl)-2-methyl-8-(naphthalen-1-ylmethyl)-6-oxo-9-(3-(trifluoromethyl)phenyl)-3,4-dihydro-2H,6H-pyrido[1,2-e][1,2,5]thiadiazine-4-carboxylic acid 1,1-dioxide] | 11 to 31 | 14 | 11 to 31 | 25 | < 1.3 | 0.6 |  |  |  |  |

Reference: patent publication US20230131899A1, “INHIBITORS OF MICROBIALLY INDUCED AMYLOID” (Axial Therapeutics, Inc., priority 2020, published 2023)
